A short description of series [1]: in vitro. The settings on record: African green monkey.
In another series the test system is DENV-2 16681 strain. Briefly: DENV-2 antiviral assay (eGFP-labeled virus in Vero cells). It is filed as cell-based, Dengue virus. The settings on record: DENV-2 16681 eGFP, MOI 0.5, 3 days. As for the experimental part: The antiviral activity of all the compounds of the invention was tested the against DENV-2 16681 strain which was labeled with enhanced green fluorescent protein (eGPF). The culture medium consists of minimal essential medium supplemented with 2% of heat-inactivated fetal calf serum, 0.04% gentamycin (50 mg/mL) and 2 mM of L-glutamine. Vero cells, obtained from ECACC, were suspended in culture medium and 25 μL was added to 384-well plates (2500 cells/well), which already contain the antiviral compounds. Typically, these plates contain a 5-fold serial dilution of 9 dilution steps of the test compound at 200 times the final concentration in 100% DMSO (200 nL). […] Finally, each plate contains wells which are assigned as virus controls (containing cells and virus in the absence of compound), cell controls (containing cells in the absence of virus and compound) and medium controls (containing medium in the absence of cells, virus and compounds). To the wells assigned as medium control, 25 μL of culture medium was added instead of Vero cells. Once the cells were added to the plates, the plates were incubated for 30 minutes at room temperature to allow the cells to distribute evenly within the wells. Next, the plates were incubated in a fully humidified incubator (37° C., 5% CO2) until the next day. Then, DENV-2 strain 16681, labeled with eGFP, was added at a multiplicity of infection (MOI) of 0.5. Therefore, 15 μL of virus suspension was added to all the wells containing test compound and to the wells assigned as virus control. In parallel, 15 μL of culture medium was added to the medium and cell controls. Next, the plates were incubated for 3 days in a fully humidified incubator (37° C., 5% CO2). At the day of the read out, the eGFP fluorescence was measured using an automated fluorescence microscope at 488 nm (blue laser). Using an in-house LIMS system, inhibition dose response curves for each compound were calculated and the half maximal effective concentration (EC50) was determined. Therefore, the percent inhibition (I) for every test concentration is calculated using the following formula: I=100*(ST-SCC)/(SVC-SCC), ST, SCC and SVC are the amount of eGFP signal in the test compound, cell control and virus control wells, respectively. The EC50 represents the concentration of a compound at which the virus replication is inhibited with 50%, as measured by a 50% reduction of the eGFP fluorescent intensity compared to the virus control. The EC50 is calculated using linear interpolation (Table 1).

The test system of another series is DENV-1 strain TC974#666. Kind of series: Tetravalent RT-qPCR assay, serotype 1. The format is cell-based, Dengue virus. The settings on record: Dengue virus, DENV1, Vero, 72 h, RT-qPCR serotype 1 TC974#666, Protocol A, Vero cells, day 3. As for the experimental part:
(§1) Tetravalent reverse transcriptase quantitative-PCR (RT-qPCR) assay The antiviral activity of the compounds of the invention was tested against DENV-1 strain TC974#666 (NCPV), DENV-2 strain 16681, DENV-3 strain H87 (NCPV) and DENV-4 strain H241 (NCPV) in a RT-qPCR assay. Therefore, Vero cells were infected with either DENV-1, or -2, or -3, or -4 in the presence or absence of test compounds. At day 3 post-infection, the cells were lysed and cell lysates were used to prepare cDNA of both a viral target (the 3′UTR of DENV; Table 2) and a cellular reference gene (β-actin, Table 2). Subsequently, a duplex real time PCR was performed on a Lightcycler480 instrument. The generated Cp value is inversely proportional to the amount of RNA expression of these targets. Inhibition of DENV replication by a test compound results in a shift of Cp's for the 3′UTR gene. On the other hand, if a test compound is toxic to the cells, a similar effect on β-actin expression will be observed. The comparative ΔΔCp method is used to calculate EC50, which is based on the relative gene expression of the target gene (3′UTR) normalized with the cellular housekeeping gene (β-actin). In addition, CC50 values are determined based on the Cp values acquired for the housekeeping gene β-actin.
(§2) The culture medium consisted of minimal essential medium supplemented with 2% of heat-inactivated fetal calf serum, 0.04% gentamycin (50mg/mL) and 2 mM of L-glutamine. Vero cells, obtained from ECACC, were suspended in culture medium and 75 μL/well was added in 96-well plates (10000 cells/well), which already contain the antiviral compounds. […] In addition, each plate contains wells which are assigned as virus controls (containing cells and virus in the absence of compound) and cell controls (containing cells in the absence of virus and compound). Once the cells were added in the plates, the plates were incubated in a fully humidified incubator (37° C., 5% CO2) until the next day. Dengue viruses serotype-1, 2, 3 and 4 were diluted in order to obtain a Cp of ˜22-24 in the assay. Therefore, 25 μL of virus suspension was added to all the wells containing test compound and to the wells assigned as virus control. In parallel, 25 μL of culture medium was added to the cell controls. Next, the plates were incubated for 3 days in a fully humidified incubator (37° C., 5% CO2). After 3 days, the supernatant was removed from the wells and the cells were washed twice with ice-cold PBS (˜100 μL). The cell pellets within the 96-well plates were stored at −80° C. for at least 1 day. Next, RNA was extracted using the Cells-to-CT™ lysis kit, according to the manufacturer's guideline (Life Technologies). The cell lysates can be stored at −80° C. or immediately used in the reverse transcription step.
(§3) In preparation of the reverse transcription step, mix A (table 3A) was prepared and 7.57 μL/well was dispensed in a 96-well plate. After addition of 5 μL of the cell lysates, a five minute denaturation step at 75° C. was performed (table 3B). Afterwards, 7.43 μL of mix B was added (table 3C) and the reverse transcription step was initiated (table 3D) to generate cDNA.
(§4) Finally, a RT-qPCR mix was prepared, mix C (table 4A), and 22.02 μL/well was dispensed in 96-well LightCycler qPCR plates to which 3μL of cDNA was added and the qPCR was performed according to the conditions in table 4B on a LightCycler 480.
(§5) Using the LightCycler software and an in-house LIMS system, dose response curves for each compound were calculated and the half maximal effective concentration (EC50) and the half maximal cytotoxic concentration (CC50) were determined (Tables 5-8).
A general note: In qPCR the cycle at which signal appears reflects the starting amount.

Series [2] in a line: in vitro. The settings on record: African green monkey. It is filed as cell-based. As for the experimental part: as §1, §2, §5
The next series deals with Vero cells. The settings on record: African green monkey.
The next series deals with DENV-2 strain 16681. Briefly: Tetravalent RT-qPCR assay, serotype 2. The format is cell-based, Dengue virus. The settings on record: Dengue virus, DENV2, Vero, 72 h, RT-qPCR serotype 2 16681, Protocol A, Vero cells, day 3. As for the experimental part:
as §1, §2, §3, §4, §5

The test system of the next series is DENV-3 strain H87. Kind of series: Tetravalent RT-qPCR assay, serotype 3. The format is cell-based, Dengue virus. The settings on record: Dengue virus, DENV3, Vero, 72 h, RT-qPCR serotype 3 H87, Protocol A, Vero cells, day 3. As for the experimental part:
as §1, §2, §3, §4, §5

Another series relates to DENV-4 strain H241. Kind of series: Tetravalent RT-qPCR assay, serotype 4. The settings on record: Dengue virus, DENV4, Vero, 72 h, RT-qPCR serotype 4 H241, Protocol A, Vero cells, day 3; read-out: EC50. It is filed as cell-based, Dengue virus. As for the experimental part:
as §1, §2, §3, §4, §5

Setting [3] is: Dengue virus, DENV2, Vero, 72 h.

Drawing on patent publication US20200339511A1, “Substituted indoline derivatives as dengue viral replication inhibitors” (priority 2016, published 2020), this text covers CC50, melting point and EC50 for ten molecules.

Usually melting point stands for the temperature of the solid-liquid transition. Broadly, the EC50 is the concentration giving half of the maximal effect. With `COc1cc(NC(C(=O)N2CCc3ccc(C(F)(F)F)cc32)c2ccc(Cl)cc2OC)cc(OCCO)c1` (racemic) [Compound 1, 2-(4-chloro-2-methoxyphenyl)-2-((3-(2-hydroxyethoxy)-5-methoxyphenyl)amino)-1-(6-(trifluoromethyl)indolin-1-yl)ethanone], the melting point came out at 194 °C. Further, the CC50 in the series “in vitro [1]” is 13 µM. In the series with DENV-2 16681 strain (setting [3]), this molecule showed a 50% effective concentration (EC50) of 0.0056 µM.
In the same order, the values of `COc1cc(NC(C(=O)N2CCc3ccc(OC(F)(F)F)cc32)c2ccc(Cl)cc2)cc(OCCO)c1` (racemic) [Compound 3, 2-(4-chlorophenyl)-2-((3-(2-hydroxyethoxy)-5-methoxyphenyl)amino)-1-(6-(trifluoromethoxy)indolin-1-yl)ethanone] are 162 °C, 9.5 µM and 0.0055 µM.
In the same order, the values of `COc1cc(NC(C(=O)N2CCc3ccc(C(F)(F)F)cc32)c2ccc(Cl)cc2)cc(OCCO)c1` (racemic) [Compound 4, 2-(4-chlorophenyl)-2-((3-(2-hydroxyethoxy)-5-methoxyphenyl)amino)-1-(6-(trifluoromethyl)indolin-1-yl)ethanone] are 160 °C, 9.7 µM and 0.0067 µM.
Taken in the same sequence, the figures for `COc1cc(NC(C(=O)N2CCc3ccc(OC(F)(F)F)cc32)c2ccc(Cl)cc2OC)cc(OCCO)c1` (racemic) [Compound 5, 2-(4-chloro-2-methoxyphenyl)-2-((3-(2-hydroxyethoxy)-5-methoxyphenyl)amino)-1-(6-(trifluoromethoxy)indolin-1-yl)ethanone] were 162 °C, 9.3 µM and 0.0046 µM.
In turn, `COc1cc(NC(C(=O)N2CCc3cc(OC)c(C(F)(F)F)cc32)c2ccc(Cl)cc2OC)cc(OCCO)c1` (racemic) [Compound 11, 2-(4-chloro-2-methoxyphenyl)-2-((3-(2-hydroxyethoxy)-5-methoxyphenyl)amino)-1-(5-methoxy-6-(trifluoromethyl)indolin-1-yl)ethanone] returned a melting point of 175 °C. The CC50 in “in vitro [1]” turned out to be 22 µM. This molecule also came in with an EC50 with DENV-2 16681 strain (setting [3]) of 0.0023 µM.
In the same order, the values of `COc1cc(NC(C(=O)N2CCc3cc(F)c(C(F)(F)F)cc32)c2ccc(Cl)cc2)cc(OCCO)c1` (racemic) [Compound 12, 2-(4-chlorophenyl)-1-(5-fluoro-6-(trifluoromethyl)indolin-1-yl)-2-((3-(2-hydroxyethoxy)-5-methoxyphenyl)amino)ethanone] are 130 °C, 11 µM and 0.011 µM.
In the same order, the values of `COc1cc(NC(C(=O)N2CCc3cc(OC)c(OC(F)(F)F)cc32)c2ccc(Cl)cc2)cc(OCCO)c1` (racemic) [Compound 13, 2-(4-chlorophenyl)-2-((3-(2-hydroxyethoxy)-5-methoxyphenyl)amino)-1-(5-methoxy-6-(trifluoromethoxy)indolin-1-yl)ethanone] are 165 °C, 13 µM and 0.0049 µM.
In the case of `COc1cc(NC(C(=O)N2CCc3ccc(C(F)(F)F)cc32)c2ccc(Cl)cc2F)cc(OCCO)c1` (single isomer, unassigned) [Compound 2B, 2-(4-chloro-2-fluorophenyl)-2-((3-(2-hydroxyethoxy)-5-methoxyphenyl)amino)-1-(6-(trifluoromethyl)indolin-1-yl)ethanone], the EC50 was 0.0024 µM with DENV-1 strain TC974#666; 0.0025 µM with DENV-2 16681 strain; 0.0032 µM in the series with DENV-2 strain 16681; 0.029 µM in the series on DENV-3 strain H87; 0.17 µM with DENV-4 strain H241. Also, the CC50 at 3 days in the series “in vitro [2]” amounted to 4.8 µM. Also, the CC50 in the series on Vero cells was 13 µM.
For the molecule `COc1cc(NC(C(=O)N2CCc3ccc(OC(F)(F)F)cc32)c2ccc(Cl)cc2OC)cc(OCCO)c1` (single isomer, unassigned) [Compound 5A, 2-(4-chloro-2-methoxyphenyl)-2-((3-(2-hydroxyethoxy)-5-methoxyphenyl)amino)-1-(6-(trifluoromethoxy)indolin-1-yl)ethanone], the EC50 in the series with DENV-1 strain TC974#666 is 0.0026 µM; in the series with DENV-2 16681 strain, 0.0014 µM; in the series with DENV-2 strain 16681, 0.003 µM; in the series on DENV-3 strain H87, 0.02 µM; with DENV-4 strain H241, 0.21 µM. Also, the CC50 in “in vitro [1]” was 9.8 µM. Moreover, the CC50 at 3 days in the series “in vitro [2]” is 4.7 µM.
As to `COc1cc(NC(C(=O)N2CCc3ccc(OC(F)(F)F)cc32)c2ccc(Cl)cc2F)cc(OCCO)c1` (single isomer, unassigned) [Compound 6B, 2-(4-chloro-2-fluorophenyl)-2-((3-(2-hydroxyethoxy)-5-methoxyphenyl)amino)-1-(6-(trifluoromethoxy)indolin-1-yl)ethanone], the half-maximal effective concentration (EC50) in the series with DENV-1 strain TC974#666 stood at 0.0031 µM; in the series on DENV-2 16681 strain, 0.0025 µM; in the series on DENV-2 strain 16681 it was 0.002 µM; in the series with DENV-3 strain H87, 0.028 µM; in the series with DENV-4 strain H241 it was 0.14 µM. Further, in “in vitro [2]”, the CC50 at 3 days turned out to be 4.8 µM. The CC50 in the series with Vero cells is 12 µM.
